# Entries after “also recorded” stand apart in the source; their conditions may differ.
# Tests used:
# Type in all cases: in vivo
# [1] = tested on: hearts from donor B6.C-H2^bm12 mice transplanted into C57/BL6 recipient mice (MHC II mismatch); test: Chronic rejection of MHC class II mismatched heart transplants, first mouse model (Example 1)
# Protocol: The ability of Compound 1 to inhibit chronic transplant rejection in a mouse model was tested. Specifically, hearts from donor B6.C-H2^bm12 mice were transplanted into C57/BL6 recipient mice (MHC II mismatch) using standard protocol described in Hancock, W. W., et al. Proc. Natl. Acad. Sci. USA 93: 13967 (1996) and Yuan et al., Transplantation 73:1736, the entire teachings of which are incorporated herein by reference. Following surgery, the mice were divided into the following treatment groups with seven mice each:
# Group I was a control group that was untreated.
# Group II was treated with Compound 1 at a dose of 75 mg/kg/day subcutaneously for fourteen days following surgery.
# At eight weeks following transplant surgery, the mice were sacrificed and evaluated for chronic rejection accelerated atherosclerosis. Briefly, transplanted hearts were fixed in formalin, embedded in paraffin and sectioned coronally. The sections were scanned for arterial blood vessels, which were subjected to a histopathological score. The histopathological scores (range 0-5 indicating severity of chronic rejection accelerated atherosclerosis, with 0 being normal blood vessel and 5 being fully occluded) are shown in FIG. 1. […] It is likely that increased bioavailability resulting from improved compound formulation will result in more complete protection from chronic rejection vasculopathy.
# [2] = tested on: fully mismatched cardiac allografts (C57/BL 6 donor with Balb/C recipient); test: Heterotypic allogeneic heart transplant model with CD154 blockade, second mouse model (Example 2)
# Protocol: The ability of compound 1 to inhibit chronic transplant rejection was tested in a mouse heterotypic allogeneic heart transplant model in which acute allograft rejection was prevented with CD154 blockade as previously described (Hancock, W. W. et al. 1996. Proc. Natl. Acad. Sci. USA. 93:13967; and Yuan et al., Transplantation 73:1736). Briefly, this model consists of fully mismatched cardiac allografts (C57/BL 6 donor with Balb/C recipient). […] A third group in which acute rejection is blocked by administering a single 250 μg dose of anti-CD154 (anti-CD40 ligand) monoclonal antibody was established, and acute rejection (as evidenced by cessation of contraction of the transplanted heart) occurred in approximately 50% of recipient animals. […] These include profound athlerosclerotic blockages of heart arteries, cellular inflammation (immune cell infiltration into the heart muscle itself), and fibrotic scarring of the cardiac parenchyma. The hearts were subjected to a histopathological score. The histopathological scores (range 0-5 indicating severity of chronic rejection accelerated atherosclerosis, with 0 being normal blood vessel and 5 being fully occluded) are shown in FIG. 2. Thus the addition of anti-CD154 to this model offers certain similarities to the human transplant clinical condition in that acute rejection is managed (in this case with the anti-CD154 monoclonal antibody) so that chronic rejection pathology can be observed.
# [3] = tested on: heart from C57/BL6 mice transplanted into Balb/c recipient mice (total MHC mismatch); test: Transplant rejection in total MHC mismatch heart transplant mouse model (Example 3); conditions: Compound 1 alone 75 mg/kg/day s.c. for fourteen days; p<0.001; untreated controls rejected after ten days
# Protocol: The ability of Compound 1 to inhibit transplant rejection in a mouse model was tested. Specifically, the heart from C57/BL6 mice was transplanted into Balb/c recipient mice (total MHC mismatch) using standard protocol described in Hancock, W. W., et al. “Costimulatory function and expression of CD40 ligand, CD80 and CD86 in vascularized murine cardiac allograft rejection” Proc. Natl. Acad. Sci. USA 93: 13967 (1996). Following surgery, the mice were divided into the following treatment groups: • Group I is a control group that was untreated. • Group II was treated with Compound 1 at a dose of 75 mg/kg/day subcutaneously for fourteen days following surgery. Control mice receiving no treatment reproducibly experienced rejection of their transplanted hearts after only ten days.
structure (smiles),measurement,setting,value
N#Cc1cccc(C(C(=O)NCC(c2ccccc2)c2ccccc2)N(CCc2c[nH]cn2)C(=O)c2ccccc2C(=O)c2ccccc2)c1 (centres unmarked) [Compound 1],animals free of vasculopathy,"[1]; 75 mg/kg/day s.c. for fourteen days, eight weeks after transplant, seven mice per group",4/7
same,treated animals showing full involvement (vasculopathy),"[1]; 75 mg/kg/day s.c. for fourteen days, eight weeks after transplant, seven mice per group, possibly diminished exposure",three
same,"histological evidence of chronic rejection (histopathological score 0-5, chronic rejection accelerated atherosclerosis)","[1]; 75 mg/kg/day subcutaneously for fourteen days following surgery, evaluated eight weeks after transplant, averaged for all animals, vs untreated control",inhibited; also recorded: significantly (p=0.0002) prevented histological evidence of chronic rejection
same,chronic rejection of transplanted hearts,"[2]; 75 mg/kg/day Compound 1 for two weeks combined with single 250 μg anti-CD154 monoclonal antibody, 120 days post surgery",inhibited
same,"indicators of chronic graft rejection (atherosclerotic blockages, cellular inflammation, fibrotic scarring), histological evaluation","[2]; Compound 1 75 mg/kg daily s.c. for 14 days plus single dose anti-CD154, compared with anti-CD154 alone, more than 100 days post surgery",dramatic inhibition of all indicators of chronic rejection
same,transplant recipient animals with lack of acute rejection,"[2]; Compound 1 75 mg/kg daily s.c. for 14 days plus single dose anti-CD154, for more than 100 days post surgery",100%
same,extension in transplant survival,"[2]; Compound 1 alone, untreated recipients rejected within 10 days",about 20 days
same,delay in the onset of rejection,[3],two to three

# Source: patent US7687530B2, “Inhibition of chronic tissue transplant rejection” (Genzyme Corporation, priority 2002, dated 2010)
